Results from patent publication US5534511A, “Aminoalkyl benzoxazolinones and benzothiazolinones” (Adir et Compagnie, priority 1994, dated 1996).

Tested on: NMRI-CERJ mice
Assay: Antagonism of the hypermotility induced by amphetamine
Format: in vivo
Details: d-amphetamine 4 mg kg^-1 IP, 30 minutes
Method: 4 mg kg^-1 of d-amphetamine are injected intraperitoneally (IP) into groups of 10 NMRI-CERJ mice immediately after IP injection of the compound to be tested, and the mice are placed in an actimeter for 30 minutes.
The number of interruptions of the photoelectric cells is counted, as is the stereotyped behavior.
The activity of the compounds tested is expressed as a percentage of the antagonism of the hyperactivity induced by amphetamine.

What does the source list for `Cn1c(=O)sc2cc(CCN3CCC(Cc4ccccc4)CC3)ccc21` [Example 1, 3-METHYL-6-[2-(4-BENZYLPIPERID-1-YL)ETHYL]BENZOTHIAZOLINONE]?
percentage of the antagonism of the hyperactivity induced by amphetamine (2 mg.kg^-1 IP): 23%; percentage of the antagonism of the hyperactivity induced by amphetamine (4 mg.kg^-1 IP): 50%; percentage of the antagonism of the hyperactivity induced by amphetamine (8 mg.kg^-1 IP): 63%
